Measurements from PMC8032764 (Scientific Reports, 2021).
Where two headings read alike, the source gives them in different places.

What was measured:
GABAA α2β3γ2 = settings: Table S4a, cited from earlier work
GABAA α1β3γ2 = settings: Table S4a, cited from earlier work
healthy elderly humans = settings: cited from earlier work
GABAA α5β3γ2 = settings: Table S4a, read-out: Ki α5β3γ2, cited from earlier work
GABAA α3β3γ2 = settings: Table S4a, cited from earlier work
non-impaired rodents = assay: Cognitive performance in non-impaired rodents; type: in vivo; settings: data not shown
[1] = system: binding sites of [3H]-Ro 15-4513 in the hippocampus; settings: similar experiments; cited from earlier work
CYP1A2 = settings: rats, reduced plasma exposure on chronic dosing; cited from earlier work
human α6β3γ2 = target: T1, human α6β3γ2 (Homo sapiens, UniProt P18507+Q16445); settings: previously determined; read-out: Kd of the radiolabel; cited from earlier work
T1 construct: expressed in transfected cells; host or cells: HEK293-EBNA, transient
T1 sequence (Q16445 20-453): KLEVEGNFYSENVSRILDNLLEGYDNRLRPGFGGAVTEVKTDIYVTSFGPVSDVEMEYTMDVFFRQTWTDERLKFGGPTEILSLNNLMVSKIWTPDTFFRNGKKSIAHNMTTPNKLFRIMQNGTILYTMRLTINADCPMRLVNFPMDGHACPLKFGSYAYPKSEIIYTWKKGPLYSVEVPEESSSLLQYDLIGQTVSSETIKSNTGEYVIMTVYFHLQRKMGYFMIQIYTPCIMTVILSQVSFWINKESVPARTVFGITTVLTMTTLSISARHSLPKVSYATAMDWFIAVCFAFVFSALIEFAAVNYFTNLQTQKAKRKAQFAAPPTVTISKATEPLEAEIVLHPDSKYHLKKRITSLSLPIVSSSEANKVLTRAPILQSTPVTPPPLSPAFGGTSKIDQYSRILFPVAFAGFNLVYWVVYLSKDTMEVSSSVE
T1 sequence (P28472 26-473 partner): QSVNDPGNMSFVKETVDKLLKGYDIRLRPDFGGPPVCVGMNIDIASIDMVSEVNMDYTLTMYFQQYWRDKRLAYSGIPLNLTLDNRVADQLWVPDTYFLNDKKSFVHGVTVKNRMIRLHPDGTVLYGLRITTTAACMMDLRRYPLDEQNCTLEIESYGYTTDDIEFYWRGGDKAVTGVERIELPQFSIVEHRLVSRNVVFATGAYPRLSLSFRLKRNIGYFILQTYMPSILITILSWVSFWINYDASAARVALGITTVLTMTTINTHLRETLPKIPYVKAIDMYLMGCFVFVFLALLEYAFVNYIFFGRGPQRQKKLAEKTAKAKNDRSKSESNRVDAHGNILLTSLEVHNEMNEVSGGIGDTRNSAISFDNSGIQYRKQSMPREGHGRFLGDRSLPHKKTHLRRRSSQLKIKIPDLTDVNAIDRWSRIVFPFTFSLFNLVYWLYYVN
T1 sequence (P18507 40-475): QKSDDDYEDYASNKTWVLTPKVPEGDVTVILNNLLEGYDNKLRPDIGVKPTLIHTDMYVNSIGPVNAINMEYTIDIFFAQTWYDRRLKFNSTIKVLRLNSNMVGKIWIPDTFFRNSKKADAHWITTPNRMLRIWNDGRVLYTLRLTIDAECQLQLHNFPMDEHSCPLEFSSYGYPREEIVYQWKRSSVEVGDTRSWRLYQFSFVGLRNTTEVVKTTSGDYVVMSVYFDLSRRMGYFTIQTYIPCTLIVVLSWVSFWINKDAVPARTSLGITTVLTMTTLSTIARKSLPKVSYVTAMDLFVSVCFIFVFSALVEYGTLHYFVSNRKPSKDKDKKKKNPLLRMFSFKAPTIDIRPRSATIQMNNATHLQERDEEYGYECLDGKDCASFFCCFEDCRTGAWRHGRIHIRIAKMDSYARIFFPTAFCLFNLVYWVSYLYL

human GABAA α5β3γ2 = human GABAA α5β3γ2 (Homo sapiens, UniProt P18507+P31644); assay: Two-electrode voltage clamp in Xenopus oocytes, current induced by EC10 of GABA; type: cell-based; set-up: expressed in transfected cells; host or cells: Xenopus laevis oocytes, cRNA injection; settings: 1000 nM, n = 12, not shown
Chain of human GABAA α5β3γ2 (P31644 32-462): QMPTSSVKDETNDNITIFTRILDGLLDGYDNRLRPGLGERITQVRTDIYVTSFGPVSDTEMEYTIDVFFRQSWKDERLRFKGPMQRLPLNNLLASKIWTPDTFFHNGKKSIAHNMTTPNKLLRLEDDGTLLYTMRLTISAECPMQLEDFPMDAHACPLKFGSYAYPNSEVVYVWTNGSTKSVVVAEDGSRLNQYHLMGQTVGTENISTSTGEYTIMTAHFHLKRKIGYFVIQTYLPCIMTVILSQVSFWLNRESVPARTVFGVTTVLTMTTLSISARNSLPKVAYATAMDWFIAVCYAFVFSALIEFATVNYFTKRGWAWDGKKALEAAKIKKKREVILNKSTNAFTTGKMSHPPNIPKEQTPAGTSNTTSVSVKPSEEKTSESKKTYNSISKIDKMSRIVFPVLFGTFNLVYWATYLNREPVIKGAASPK
Chain of human GABAA α5β3γ2 (P28472 26-473 partner): as the sequence (P28472 26-473 partner) above
Chain of human GABAA α5β3γ2 (P18507 40-475): as the sequence (P18507 40-475) above
Description: Freshly prepared oocytes of maturation stage VI were bought from Ecocyte Bioscience (Castrop-Rauxel, Germany) and, after overnight delivery, plated into 96-well plates (Greiner no. 651101) for microinjection on a ROBOOCYTE R16 system (Multichannel Systems MCS GmbH, Reutlingen, Germany). Each oocyte was injected with roughly 50 nL of RNA solution. The solution for expressing receptors composed of the human α1, β2 and γ2 subunits contained 3 pg/nL of α1 and β2 RNA and 15 pg/nL of γ2 RNA. The solution for expressing human α2β3γ2 receptors contained 2.5 pg/nL of α2 and β3 RNA, 5 pg/nL of γ2 RNA and 10 pg/nL of GABARAP RNA. The solution for expressing human α3β3γ2 receptors contained 1.3 pg/nL of α3 and β3 RNA and 6.5 pg/nL of γ2 RNA. The solution for expressing human α5β3γ2 receptors contained 1.3 pg/nL of α5 and β3 RNA and 13 pg/nL of γ2 RNA. […] After the microinjection the oocytes were kept at 20 °C temperature until the electrophysiological experiment. Experiments were done 3 to 5 days later on the ROBOOCYTE instrument which employs the two-microelectrode voltage-clamp technique for membrane voltage control and current measurement. […] During current recording and compound testing the cell membrane was constantly clamped to − 80 mV. Current signals were recorded and stored on a PC-type computer using the ROBOOCYTE software.
During the microinjection and up to the electrophysiological experiment the oocytes were kept in a solution containing 88 mM NaCl, 1 mM KCl, 2.5 mM NaHCO3, 10 mM HEPES (AppliChem GmbH, Darmstadt, Germany), 0.82 MgSO4, 0.33 mM Ca(NO3)2, 0.33 mM CaCl2, 100 U/mL penicillin (GIBCO, ThermoFisher Scientific) and 100 µg/mL streptomycine (GIBCO, ThermoFisher Scientific). The pH was adjusted to 7.5. During the experiment the voltage-clamped oocyte was constantly superfused by a solution containing 90 mM NaCl, 1 mM KCl, 5 mM HEPES (AppliChem), 1 mM MgCl2 and 1 mM CaCl2 (pH 7.4). GABA and test compounds were added to this solution. GABA concentrations were chosen according to previously determined concentration–response relations for the different human GABAA receptor subunit combinations. Concentrations evoking approximately 10% of a maximal response were selected, i.e., 8 µM for α1β2γ2, 6 µM for α2β3γ2, 10 µM for α3β3γ2 and 5 µM for α5β3γ2. Solutions containing GABA or test compounds were freshly prepared at least every second day. […] Compounds were further diluted in DMSO and finally in extracellular saline to reach a DMSO concentration of 0.1%. The same amount of DMSO was added to the control solutions without test compounds.
During the experiment the solutions were fed into the well containing the voltage-clamped oocyte via Teflon tubings connected by electromagnetic valves which allowed rapid switching between different solutions (controlled by the ROBOCYTE software). Approximately 1–2 min after impaling an oocyte and switching to voltage-clamp mode GABA was applied for 90 s to record a control response. Thereafter the oocyte was washed with saline for 160 s followed by another 90 s GABA application. Then 30 s after the onset of the second GABA application the system switched to a solution containing GABA plus the test compound. Each oocyte was used for testing one concentration of a single test compound (for α5β3γ2: 1 nM: n = 8, 10 nM: n = 8, 100 nM: n = 7, 1000 nM: n = 7).
In this case each GABA application lasted 110 s and the rest period between the two GABA applications was 190 s long.
On each 96-well plate 3–6 oocytes were used for testing a known NAM at the BZD binding site, β-CCM (FG7106), as a positive control. […] Maximally effective concentrations of β-CCM were used for each subunit combination, i.e., 100 nM β-CCM for α1β2γ2, 300 nM for α2β3γ2 or α3β3γ2 and 1 µM for α5β3γ2.

healthy volunteers = assay: Resting state EEG in healthy volunteers; type: in vivo, human; settings: midazolam single dose, 1 h post dose
Description: Full details of the protocol can be found in the Supplementary Information. The study was registered on October 2, 2014 with clinicaltrials.gov identifier NCT02254759. The DDI study was approved by the National Research Ethics Service (NRES) Committee South Central—Berkshire B. EEG was included in the study as one of the pharmacodynamic outcome measures.
Resting state EEG (4 min eyes open, 4 min eyes closed) was recorded at 4 days 1 h and 4 h after dosing at morning (similar time at baseline day). […] The EEG recording from day 16 is not reported here. The EEG technician kept the subject alert (vigilance controlled resting state condition). As soon as drowsiness patterns appeared (slow rolling eye movements, attenuated alpha rhythm replaced by low amplitude), the subject was aroused by auditory stimuli (tapping or clicking).
EEG was recorded from 19 Ag/AgCl electrodes arranged according to the 10/20 system and mounted in an elastic cap. EOG was recorded simultaneously from five electrodes. […]
Power spectral estimates were derived for logarithmically scaled frequencies with a logarithmic frequency smoothing using Morlet Wavelets with a spectral smoothing of 1/2 octave (f/σf = 5.83). […] For analyses of “relative power” the power was normalized to 1 across the frequency range analyzed. […]

preclinical species = system: preclinical species; set-up: method as in PMID 15918586; settings: cited from earlier work
humans = settings: experimental medicine study; cited from earlier work

For `Cc1cc(-c2nncc3c(C(C)(C)C)c(OCc4ncnn4C)nn23)no1` [MRK-016, 3-tert-butyl-7-(5-methylisoxazol-3-yl)-2-(1-methyl-1H-1,2,4-triazol-5-ylmethoxy)-pyrazolo[1,5-d]-[1,2,4]triazine], the Ki (GABAA α2β3γ2; ref Atack et al. 2009) is given as 0.9 nM, the Ki (GABAA α1β3γ2; ref Atack et al. 2009) is given as 0.8 nM and the “reason why development was stopped” value (healthy elderly humans) is given as “poor tolerability in healthy elderly humans”. For the same compound, the Ki (GABAA α5β3γ2; ref Atack et al. 2009) was 1.4 nM.
In the case of `FC(F)c1ncn2c1Cn1ncnc1-c1cc(Br)ccc1-2` [RO4938581], the Ki (GABAA α3β3γ2; ref Ballard et al., 2008) is listed as 80 nM, the “enhancement of cognitive performance” value (non-impaired rodents) is listed as “have not shown enhancement of cognitive performance” and the Ki (GABAA α2β3γ2; ref Ballard et al., 2008) is listed as 185 nM. For the same compound, the Ki (GABAA α1β3γ2; ref Ballard et al., 2008) was 174 nM, the “binding sites of [3H]-Ro 15-4513 in the hippocampus occupied by the compound” value [1] was “up to 90%” and the CYP1A2 autoinduction (CYP1A2) was “strong CYP1A2 autoinduction properties”. For the same compound, the Ki (GABAA α5β3γ2; ref Ballard et al., 2008) was 4.6 nM.
In the case of `[3H]C([3H])([3H])N1Cc2c(C(=O)OCC)ncn2-c2ccc(N=[N+]=[N-])cc2C1=O` [Ro 15-4513, ethyl 8-azido-6-oxo-5-(tritritiomethyl)-4H-imidazo[1,5-a][1,4]benzodiazepine-3-carboxylate], the Kd (human α6β3γ2) is listed as 1.83 nM.
With `Cc1ncc2n1-c1ccc(Cl)cc1C(c1ccccc1F)=NC2` [midazolam, reference compound] the “increase of the GABA-induced current” value (human GABAA α5β3γ2) was 145 ± 9% and the “change of relative EEG power in the beta band” value (healthy volunteers) was 32.2 ± 7.04%.
In the case of `Cc1cc(-c2nnc3c4ccccc4c(OCc4cn(C)nn4)nn23)no1` [α5IA], the “reason why development was stopped” value (preclinical species) is listed as “renal toxicity in preclinical species”, the “alcohol-induced impairment in word list recall” value (humans) is listed as “reversed an alcohol-induced impairment in word list recall” and the Ki (GABAA α3β3γ2; ref Dawson et al., 2006) is listed as 0.6 nM. The Ki (GABAA α2β3γ2; ref Dawson et al., 2006) was 0.6 nM, the Ki (GABAA α1β3γ2; ref Dawson et al., 2006) was 0.9 nM and the Ki (GABAA α5β3γ2; ref Dawson et al., 2006) was 0.7 nM.
